The target of data set [1] is α1 adrenergic receptor. The experiment in a line: α1 adrenergic receptor [3H]prazosin binding, rat cerebral cortex preparation. Particulars: [3H]prazosin 0.25 nM, 60 min at 22° C., read-out: Inhibition of radioligand binding, affinity (Ki).
Experimental: At the end of 60 min, the assay was terminated by vacuum filtration and the amount of radioactivity deposited on the filter measured by scintillation counting.
(§2) Ki=inhibitory constant defined as IC50/L+KD; IC50=concentration of bicifadine HCl that inhibits 50% of the maximal response; L=concentration of radioligand added; KD, dissociation constant of the radioligand at equilibrium.
Data set [2] concerns the target T1, 5-HT2A receptor (Homo sapiens, UniProt P28223).
T1 construct: expressed in transfected cells; host or cells: CHO cells
The experiment in a line: 5-HT2A receptor [3H]LSD binding screen, recombinant receptors in CHO cells. Particulars: [3H]LSD 1.2 nM, recombinant human 5-HT2A in CHO cells, 37° C., 30 min, read-out: inhibition of radioligand binding.

The target in data set [3] is T2, norepinephrine transporter protein (Homo sapiens, UniProt P23975).
T2 construct: expressed in transfected cells; host or cells: HEK 293 cells
Kind of data set: [3H]norepinephrine uptake in HEK 293 cells expressing the transporter. The class given is cell-based. The note with it: recombinant human norepinephrine transporter, 20 nM [3H]norepinephrine, read-out: inhibition of [3H]Norepinephrine uptake (IC50). On the procedure:
(§1) The effects bicifadine on [^3H]norepinephrine and [^3H]serotonin uptake were measured in HEK 293 cells expressing the recombinant human forms of the norepinephrine and serotonin transporter proteins, respectively using a modification of the techniques described by Eschleman, et al., (1999). Cells were grown on 150-mm-diameter tissue culture dishes until confluent. Medium was removed from the plates and the cells were washed twice with Ca^2+, Mg^2+-free PBS. Fresh Ca^2+, Mg^2+-free PBS (2.5 ml) was then added to each plate and the plates were placed in a 25° C. water bath for 5 min. The cells were then gently scraped from the plates, and cell clusters were separated by trituration with a pipette for 5 to 10 aspirations and ejections. Aliquots (50 μl) of the suspended cells were then added to assay tubes (in triplicate) containing various concentrations of bicifadine and Krebs-HEPES assay buffer in a final assay volume of 0.5 ml. Following a 10-min pre-incubation in a 25° C. water bath, [^3H]norepinephrine or serotonin (20 nM final concentration) was added, and the assay was incubated for 10 min. The reaction was terminated by filtration through Wallac filtermat A filters presoaked in 0.05% polyethylenimine, using a Tomtec cell harvester. Scintillation fluid was then added to each filtered spot, and radioactivity remaining on the filters was determined by scintillation counting. […]

For data set [4], the target named is T3, serotonin transporter protein (Homo sapiens, UniProt P31645).
T3 construct: expressed in transfected cells; host or cells: HEK 293 cells
Kind of data set: [3H]serotonin uptake in HEK 293 cells expressing the transporter. The note with it: recombinant human serotonin transporter, 20 nM [3H]serotonin, read-out: inhibition of [3H]Serotonin uptake (IC50). In kind it is cell-based. How it is done: as §1

For data set [5], the system named is Adult cats. The experiment in a line: Dilute acetic acid bladder model in anesthetized cats (cystometrogram). The class given is in vivo, cat. Particulars: i.v., during 0.5% acetic acid infusion. On the procedure:
Adult cats (male and female) were anesthetized with α-chloralose (50-75 mg/kg i.v.) A cannula was inserted into the trachea to maintain a clear airway. One catheter was inserted into the carotid artery to measure systemic blood pressure, and another was placed into the radial vein for injecting bicifadine hydrochloride. All doses of bicifadine hydrochloride were based on body weight.
Electromyography electrodes were placed in the periurethral striated muscle. A catheter was inserted through the dome of the bladder and was used to infuse either saline for the control or dilute (0.5%) acetic acid into the test cats. The catheter was also used to record bladder pressure during each voiding cystometrogram. After bladder capacity was established using the saline infusion, cysometrograms were taken after an infusion of dilute acetic acid and changes in bladder capacity were recorded. […] Fluid release during micturition was measured by collecting the fluid in a cylinder attached to a force transducer.
On reaching micturition threshold, acetic acid infusion of the bladder was continued, resulting in rhythmic micturition contractions throughout the infusion period. During this time of rhythmic bladder activity, either vehicle as the control or bicifadine hydrochloride was administered. Five minutes after each administration of bicifadine hydrochloride, the bladder was emptied and another cystometrogram was performed. This procedure was repeated with increasing doses of bicifadine hydrochloride.
Under control conditions, rapid increases in intravessicular pressure were recorded after infusion of 5.3±0.6 ml saline into an initially empty bladder. Bladder capacity was reached after infusion of approximately 10.5 ml of saline. When acetic acid was infused, bladder capacity was reduced by more than half. […] Normal time to contraction following instillation of saline into the bladder is approximately 1286 seconds.

Data set [6] relates to Female rats. The experiment in a line: Dilute acetic acid model in rats (filling cystometry). The class given is in vivo, rat. Particulars: intraduodenal, 0.25% acetic acid continuous irritation. The source says:
Additional animal models for evaluating efficacy of bicifadine as an anti-incontinence drug include a widely accepted rat model predictive of anti-incontinence drug activity in humans. Female rats (250-275 g BW, n=8) are anesthetized with urethane (1.2 g/kg) and a saline-filled catheter is inserted into the proximal duodenum for intraduodenal drug administration. A flared-tipped catheter is inserted into the bladder dome, via a midline lower abdominal incision, for bladder filling and pressure recording, and secured by ligation. Electromyography elctrodes are inserted into the external urethral sphincter percutaneously.
In the control, saline is continuously infused at a rate of about 0.055 ml/min via the bladder filling catheter for about 60 minutes to obtain a baseline of lower urinary tract activity. […] Bladder capacity (ml) is calculated as the flow rate of the bladder filling solution […] multiplied by the elapsed time between commencement of bladder filling and occurrence of bladder contraction (min).
Following the control period, a 0.25% acetic acid solution in saline is infused into the bladder to induce bladder irritation. […] Following injection of the third vehicle control, bladder capacity is again measured using acetic acid to fill the bladder. […]

Data set [7] has as its system Adult female guinea pigs. Kind of data set: Urethral function in guinea pigs (external urethral sphincter EMG). In kind it is in vivo, guinea pig. Particulars: intravenous, normal bladder filling, versus no drug or vehicle. An excerpt: Yet another animal model for evaluating efficacy of bicifadine as an anti-incontinence drug is a widely accepted guinea pig model, also predictive of anti-incontinence drug activity in humans. Adult female guinea pigs, weighing 620-707 g, are initially anesthetized with halothane and maintained with urethane. A cannula is inserted into the trachea, a jugular vein and a carotid artery for respiratory ventilation, injection of the test compound and monitoring of the blood pressure, respectively. A midline laporatomy is performed to expose the urinary bladder and a cystometry tube is inserted through a small incision in the dome of the bladder. The abdominal wound is closed tightly around the externalized cystometry tube, which is connected to an infusion pump and pressure transducer, for filling the bladder and recording intravesical pressure. Electromyographic electrodes are inserted into the striated muscles of the external urethral sphincter.
The bladder is filled at a rate of 150 μl/min^−1 with saline until initiation of a micturition reflex. […]
The bladder is then filed to 75% of the threshold volume with saline and weights are positioned on the ventral surface of the abdomen of the animal just rostral to the position of the bladder. […] Electromyographic activity and intravesical pressure are recorded while weights are applied to the abdomen. […]

Data set [8] deals with Female rats. The experiment in a line: Neurogenic overactive bladder in spinal cord transected rats. Particulars: versus no drug or vehicle. The class given is in vivo, rat. How it is done: The spinal cord is transected and the intervening space filled with Gelfoam. The overlying muscle layers and skin are sequentially closed with suture, and the animals are treated with antibiotic (100 mg/kg ampicillin s.c.) Residual urine is expressed prior to returning the animals to their cages, and thereafter 3 times daily until terminal experimentation four weeks later. On the day of the experiment, the animals are anesthetized with isofluorane (4%) and a jugular catheter is inserted for access to the systemic circulation and tunneled subcutaneously to exit through the midscapular region. Via a midline abdominal incision, a catheter with a fire-flared tip is inserted into the dome of the bladder through a small cystotomy and secured by ligation for bladder filling and pressure recording. Electrodes are inserted percutaneously into the external urethral sphincter for electromyography readings. […]
Following a 60-90 minute control period of normal saline infusion (0.100-0.150 ml/min) to collect baseline continuous open cystometric data, the pump is turned off, the bladder is emptied, the pump turned back on, and bladder capacity is estimated by a filling cystometrogram. […] Following the third administration of vehicle control, bladder capacity is again measured through a cystometrogram. […] Bladder capacity is measured as described above at 20 minutes following each subsequent drug treatment.

Data set [9] can be described thus: Blood pressure in human subjects. In kind it is in vivo.
In data set [10] the target is α2 adrenergic receptor. The experiment in a line: α2 adrenergic receptor [3H]RX 821002 binding, rat cerebral cortex preparation.
Experimental: This assay was conducted by incubating the rat cortex preparation with a 0.5 nM concentration of [^3H]RX 821002 for 30 min at 22° C. in the presence of either 0.1, 0.3, 1, 3, or 10 μM concentrations bicifadine HCl. Unlabelled (−)epinephrine (100 μM) was used to determine nonspecific binding. The assay was terminated by vacuum filtration, and the amount of radiolabeled receptor retained by the filter measured by scintillation counting. […] Recombinant human 5-HT2A receptors expressed in CHO cells were incubated with bicifadine HCl (0.1, 1 or 10 μM) and [^3H]LSD (1.2 nM) at 37° C. for 30 min (Bonhaus 1995). Serotonin (10 μM) was used to determine nonspecific binding.
as §2

Structures can show the parent of a compound that is named as a salt. Where two headings read alike, the source gives them in different places.

T3 sequence (P31645 whole entry): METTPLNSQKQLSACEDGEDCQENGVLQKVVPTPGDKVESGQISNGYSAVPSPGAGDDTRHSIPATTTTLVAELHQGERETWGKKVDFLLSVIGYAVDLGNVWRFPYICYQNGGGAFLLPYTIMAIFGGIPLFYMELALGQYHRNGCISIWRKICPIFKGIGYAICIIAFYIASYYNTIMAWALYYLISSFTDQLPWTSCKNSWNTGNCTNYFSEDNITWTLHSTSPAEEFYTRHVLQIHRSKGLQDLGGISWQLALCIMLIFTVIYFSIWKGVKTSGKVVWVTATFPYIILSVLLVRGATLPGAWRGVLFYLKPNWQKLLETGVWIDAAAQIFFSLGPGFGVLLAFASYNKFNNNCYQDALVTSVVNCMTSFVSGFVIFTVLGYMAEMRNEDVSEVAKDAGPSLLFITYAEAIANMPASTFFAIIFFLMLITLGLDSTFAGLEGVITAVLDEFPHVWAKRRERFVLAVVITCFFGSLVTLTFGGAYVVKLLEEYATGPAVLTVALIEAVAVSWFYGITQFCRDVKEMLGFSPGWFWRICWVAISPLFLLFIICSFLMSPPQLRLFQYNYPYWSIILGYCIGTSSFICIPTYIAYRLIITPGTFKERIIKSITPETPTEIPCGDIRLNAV
T1 sequence (P28223 whole entry): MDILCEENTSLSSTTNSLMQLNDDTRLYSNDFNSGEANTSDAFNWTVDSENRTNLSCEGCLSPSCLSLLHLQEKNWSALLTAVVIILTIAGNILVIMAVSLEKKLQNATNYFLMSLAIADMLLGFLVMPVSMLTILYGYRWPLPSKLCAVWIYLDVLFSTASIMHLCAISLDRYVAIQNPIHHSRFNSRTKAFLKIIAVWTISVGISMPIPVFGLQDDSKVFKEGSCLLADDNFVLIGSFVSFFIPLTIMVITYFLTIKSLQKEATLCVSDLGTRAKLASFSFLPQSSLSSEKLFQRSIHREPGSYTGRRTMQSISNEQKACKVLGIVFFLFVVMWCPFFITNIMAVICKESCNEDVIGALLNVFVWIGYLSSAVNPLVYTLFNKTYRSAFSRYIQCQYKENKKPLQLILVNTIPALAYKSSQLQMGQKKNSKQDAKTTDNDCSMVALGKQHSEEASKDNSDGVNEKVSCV
T2 sequence (P23975 whole entry): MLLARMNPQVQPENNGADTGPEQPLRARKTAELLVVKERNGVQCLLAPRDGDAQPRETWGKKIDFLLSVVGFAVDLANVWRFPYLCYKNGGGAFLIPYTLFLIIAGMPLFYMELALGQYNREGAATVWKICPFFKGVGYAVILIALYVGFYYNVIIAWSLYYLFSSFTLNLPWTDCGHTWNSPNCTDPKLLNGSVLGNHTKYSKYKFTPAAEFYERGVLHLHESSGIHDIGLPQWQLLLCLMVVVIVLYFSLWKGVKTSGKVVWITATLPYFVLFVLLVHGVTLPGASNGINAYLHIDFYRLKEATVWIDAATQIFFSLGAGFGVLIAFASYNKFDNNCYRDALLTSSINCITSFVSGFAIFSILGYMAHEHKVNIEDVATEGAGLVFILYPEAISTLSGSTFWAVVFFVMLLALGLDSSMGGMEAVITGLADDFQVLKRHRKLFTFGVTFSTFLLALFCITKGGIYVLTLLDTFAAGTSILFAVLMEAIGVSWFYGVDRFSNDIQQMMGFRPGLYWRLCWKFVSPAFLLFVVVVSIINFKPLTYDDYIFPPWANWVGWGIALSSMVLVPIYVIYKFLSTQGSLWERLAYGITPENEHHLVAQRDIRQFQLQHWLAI

One may read the Ki as a dissociation constant, usually derived from enzyme kinetics or from competition with a known ligand. As usually defined, the inhibition is the share of the control response that was lost under treatment. A word on the IC50: it is the concentration needed to halve the response being measured. With `Cc1ccc([C@]23CNC[C@H]2C3)cc1` (racemic) [Bicifadine HCl, (±)-1-(4-methylphenyl)-3-azabicyclo[3.1.0]hexane hydrochloride], the Ki in [1] was determined as 1000 nM; in data set [10] (read-out: Inhibition of radioligand binding, affinity (Ki), [3H]RX 821002 0.5 nM, 30 min at 22° C., hydrochloride), 610 nM; in data set [10] (read-out: Inhibition of radioligand binding, affinity (Ki), [3H]RX 821002 0.5 nM, 30 min at 22° C., listed as bicifadine, hydrochloride) it was 600 nM. In data set [2], the inhibition at 10 µM was determined as 82%. Further, the IC50 came out at 54.7 nM in [3] and 117 nM in data set [4]. Moreover, the bladder activity result in [5] is “pronounced inhibition of bladder activity”. Also, the bladder capacity entry in data set [5] was “increased bladder capacity to near control conditions”; in [6], “increase in bladder capacity”; in data set [8], “increase in bladder capacity”. In addition, in data set [5], the “time to contraction (latency to bladder contraction)” value was “increased the time to contraction”. The “electromyographic activity of external urethral sphincter” value in data set [7] is recorded as “increase in electromyographic activity”. The “alterations in blood pressure” value in data set [9] is reported as “did not cause significant alterations in blood pressure”.
Regarding `Cc1ccc(C23CNCC2C3)cc1.Cl` (single isomer, unassigned; (+)) [(+)-bicifadine HCl, (+)-1-(p-Tolyl)-3-azabicyclo[3.1.0]hexane hydrochloride], in data set [5], the bladder activity result was “pronounced inhibition of bladder activity”, the bladder capacity result is reported as “increased bladder capacity to near control conditions” and the “time to contraction (latency to bladder contraction)” value is “increased the time to contraction”.

For the origin of these results see US20080009538A1, “Methods and compositions for the treatment of urinary incontinence” (priority 2005, published 2008).
